# ChEMBL document CHEMBL1275440, “In vitro activity of telavancin against resistant gram-positive bacteria” (2008)
# Calls of active or inactive are those of the source. The calls are words filed in the database; no cut-off is given here.
# Key:
# [1] = tested on: Staphylococcus saprophyticus; assay: Antibacterial activity against methicillin resistant coagulase-negative Staphylococcus saprophyticus clinical isolate assessed as susceptibility level by broth microdilution method; assay type: functional
# [2] = tested on: Streptococcus pneumoniae; assay: Antibacterial activity against penicillin intermediate Streptococcus pneumoniae clinical isolate assessed as susceptibility level by broth microdilution method; assay type: functional
# [3] = tested on: Enterococcus faecalis; assay: Antibacterial activity against vancomycin resistant Enterococcus faecalis VanB clinical isolate assessed as susceptibility level by broth microdilution method; assay type: functional
# [4] = (§1) Antibacterial activity against methicillin resistant coagulase-negative Staphylococcus hominis subsp. novobiosepticus clinical isolate by broth microdilution method; assay type: functional
# [5] = tested on: Streptococcus agalactiae; assay: Antibacterial activity against Streptococcus agalactiae group B clinical isolate by broth microdilution method; assay type: functional
# [6] = tested on: Streptococcus viridans; assay: Antibacterial activity against Streptococcus viridans clinical isolate assessed as susceptibility level by broth microdilution method; assay type: functional
# [7] = tested on: Streptococcus pneumoniae; assay: Antibacterial activity against penicillin resistant Streptococcus pneumoniae clinical isolate by broth microdilution method; assay type: functional
# [8] = tested on: Enterococcus faecium; assay: Antibacterial activity against vancomycin resistant Enterococcus faecium VanA clinical isolate assessed as susceptibility level by broth microdilution method; assay type: functional
# [9] = tested on: Streptococcus constellatus; assay: Antibacterial activity against Streptococcus constellatus clinical isolate by broth microdilution method; assay type: functional
# [10] = tested on: Streptococcus pyogenes; assay: Antibacterial activity against Streptococcus pyogenes MED 2040 by broth microdilution method; assay type: functional
# [11] = tested on: Streptococcus pneumoniae; assay: Antibacterial activity against multidrug resistant Streptococcus pneumoniae MED 1090 by broth microdilution method; assay type: functional
# [12] = tested on: Staphylococcus capitis; assay: Antibacterial activity against methicillin resistant coagulase-negative Staphylococcus capitis clinical isolate assessed as susceptibility level by broth microdilution method; assay type: functional
# [13] = tested on: Streptococcus mitis; assay: Antibacterial activity against Streptococcus mitis clinical isolate by broth microdilution method; assay type: functional
# [14] = tested on: Streptococcus oralis; assay: Antibacterial activity against Streptococcus oralis clinical isolate assessed as susceptibility level by broth microdilution method; assay type: functional
# [15] = tested on: Streptococcus intermedius; assay: Antibacterial activity against Streptococcus intermedius clinical isolate by broth microdilution method; assay type: functional
# [16] = tested on: Enterococcus faecalis
# [17] = tested on: Streptococcus pyogenes; assay: Antibacterial activity against Streptococcus pyogenes group A clinical isolate by broth microdilution method; assay type: functional
# [18] = tested on: Enterococcus faecium; assay: Antibacterial activity against vancomycin resistant Enterococcus faecium VanB clinical isolate by broth microdilution method; assay type: functional
# [19] = tested on: Staphylococcus aureus; assay: Antibacterial activity against methicillin resistant Staphylococcus aureus clinical isolate assessed as susceptibility level by broth microdilution method; assay type: functional
# [20] = tested on: Streptococcus pneumoniae; assay: Antibacterial activity against penicillin intermediate Streptococcus pneumoniae clinical isolate by broth microdilution method; assay type: functional
# [21] = tested on: Staphylococcus auricularis; assay: Antibacterial activity against methicillin resistant coagulase-negative Staphylococcus auricularis clinical isolate assessed as susceptibility level by broth microdilution method; assay type: functional
# [22] = tested on: Enterococcus faecalis; assay: Antibacterial activity against vancomycin resistant Enterococcus faecalis VanB clinical isolate by broth microdilution method; assay type: functional
# [23] = tested on: Staphylococcus aureus; assay: Antibacterial activity against methicillin resistant Staphylococcus aureus clinical isolate by broth microdilution method; assay type: functional
# [24] = tested on: Streptococcus pneumoniae; assay: Antibacterial activity against multidrug-resistant Streptococcus pneumoniae clinical isolate assessed as susceptibility level by broth microdilution method; assay type: functional
# [25] = tested on: Staphylococcus epidermidis; assay: Antibacterial activity against methicillin resistant Staphylococcus epidermidis clinical isolate by broth microdilution method; assay type: functional
# [26] = tested on: Streptococcus constellatus; assay: Antibacterial activity against Streptococcus constellatus clinical isolate assessed as susceptibility level by broth microdilution method; assay type: functional
# [27] = tested on: Staphylococcus auricularis; assay: Antibacterial activity against methicillin resistant coagulase-negative Staphylococcus auricularis clinical isolate by broth microdilution method; assay type: functional
# [28] = tested on: Streptococcus pneumoniae; assay: Antibacterial activity against penicillin resistant Streptococcus pneumoniae clinical isolate assessed as susceptibility level by broth microdilution method; assay type: functional
# [29] = tested on: Staphylococcus haemolyticus; assay: Antibacterial activity against methicillin resistant coagulase-negative Staphylococcus haemolyticus clinical isolate assessed as susceptibility level by broth microdilution method; assay type: functional
# [30] = tested on: Enterococcus faecalis; assay: Antibacterial activity against vancomycin resistant Enterococcus faecalis VanA clinical isolate assessed as susceptibility level by broth microdilution method; assay type: functional
# [31] = tested on: Enterococcus faecalis; assay: Antibacterial activity against vancomycin resistant Enterococcus faecalis VanA clinical isolate by broth microdilution method; assay type: functional
# [32] = tested on: Streptococcus viridans; assay: Antibacterial activity against Streptococcus viridans clinical isolate by broth microdilution method; assay type: functional
# [33] = tested on: Staphylococcus capitis; assay: Antibacterial activity against methicillin resistant coagulase-negative Staphylococcus capitis clinical isolate by broth microdilution method; assay type: functional
# [34] = tested on: Streptococcus intermedius; assay: Antibacterial activity against Streptococcus intermedius clinical isolate assessed as susceptibility level by broth microdilution method; assay type: functional
# [35] = tested on: Streptococcus agalactiae; assay: Antibacterial activity against Streptococcus agalactiae group B clinical isolate assessed as susceptibility level by broth microdilution method; assay type: functional
# [36] = tested on: Staphylococcus haemolyticus; assay: Antibacterial activity against methicillin resistant coagulase-negative Staphylococcus haemolyticus clinical isolate by broth microdilution method; assay type: functional
# [37] = tested on: Streptococcus pneumoniae; assay: Antibacterial activity against multidrug-resistant Streptococcus pneumoniae clinical isolate by broth microdilution method; assay type: functional
# [38] = tested on: Streptococcus mitis; assay: Antibacterial activity against Streptococcus mitis clinical isolate assessed as susceptibility level by broth microdilution method; assay type: functional
# [39] = tested on: Staphylococcus epidermidis; assay: Antibacterial activity against methicillin resistant Staphylococcus epidermidis clinical isolate assessed as susceptibility level by broth microdilution method; assay type: functional
# [40] = tested on: Enterococcus faecium; assay: Antibacterial activity against vancomycin resistant Enterococcus faecium VanB clinical isolate assessed as susceptibility level by broth microdilution method; assay type: functional
# [41] = tested on: Streptococcus oralis; assay: Antibacterial activity against Streptococcus oralis clinical isolate by broth microdilution method; assay type: functional
# [42] = tested on: Streptococcus pyogenes; assay: Antibacterial activity against Streptococcus pyogenes group A clinical isolate assessed as susceptibility level by broth microdilution method; assay type: functional
# [43] = tested on: Streptococcus agalactiae; assay: Antibacterial activity against Streptococcus agalactiae MED 2038 by broth microdilution method; assay type: functional
# [44] = tested on: Staphylococcus saprophyticus; assay: Antibacterial activity against methicillin resistant coagulase-negative Staphylococcus saprophyticus clinical isolate by broth microdilution method; assay type: functional
# [45] = (§2) Antibacterial activity against methicillin resistant coagulase-negative Staphylococcus hominis subsp. novobiosepticus clinical isolate assessed as susceptibility level by broth microdilution method; assay type: functional
# [46] = tested on: Enterococcus faecium; assay: Antibacterial activity against vancomycin resistant Enterococcus faecium VanA clinical isolate by broth microdilution method; assay type: functional
# [47] = tested on: Staphylococcus hominis subsp. novobiosepticus; assay: as §1; assay type: functional
# [48] = tested on: Staphylococcus hominis subsp. novobiosepticus; assay: as §2; assay type: functional
molecule,measurement,setting,value
CN[C@H](CC(C)C)C(=O)N[C@H]1C(=O)N[C@@H](CC(N)=O)C(=O)N[C@H]2C(=O)N[C@H]3C(=O)N[C@H](C(=O)N[C@H](C(=O)O)c4cc(O)cc(O)c4-c4cc3ccc4O)[C@H](O)c3ccc(c(Cl)c3)Oc3cc2cc(c3O[C@@H]2O[C@H](CO)[C@@H](O)[C@H](O)[C@H]2O[C@H]2C[C@](C)(N)[C@H](O)[C@H](C)O2)Oc2ccc(cc2Cl)[C@H]1O [VANCOMYCIN],Activity,[1],100%
same,Activity,[2],100%
same,Activity,[3],0%
same,MIC50,[4],2 µg/mL
same,MIC90,[4],2 µg/mL
same,MIC,[5],0.25 µg/mL
same,MIC50,[5],0.25 µg/mL
same,MIC90,[5],0.5 µg/mL
same,Activity,[6],100%
same,MIC50,[7],0.25 µg/mL
same,MIC90,[7],0.25 µg/mL
same,Activity,[8],0%
same,MIC,[9],0.25 µg/mL
same,MIC50,[9],inactive
same,MIC90,[9],inactive
same,MIC,[10],0.25 µg/mL
same,MIC,[11],0.25 µg/mL
same,Activity,[12],100%
same,MIC,[13],0.25 µg/mL
same,MIC50,[13],inactive
same,MIC90,[13],inactive
same,Activity,[14],100%
same,MIC,[15],0.25 µg/mL
same,MIC50,[15],inactive
same,MIC90,[15],inactive
same,MIC50,[16],inactive
same,MIC90,[16],inactive
same,MIC50,[17],0.25 µg/mL
same,MIC90,[17],0.5 µg/mL
same,MIC50,[18],512 µg/mL
same,MIC90,[18],> 512 µg/mL
same,Activity,[19],100%
same,MIC50,[20],0.5 µg/mL
same,MIC90,[20],0.5 µg/mL
same,Activity,[21],100%
same,MIC,[22],32 µg/mL
same,Activity,[23],100%
same,MIC50,[23]; Staphylococcus aureus,0.5 µg/mL
same,MIC90,[23]; Staphylococcus aureus,1 µg/mL
same,Activity,[24],100%
same,MIC,[25],0.5 µg/mL
same,Activity,[26],100%
same,MIC50,[27],2 µg/mL
same,MIC90,[27],2 µg/mL
same,Activity,[28],100%
same,Activity,[29],100%
same,Percent of isolates susceptible,[30],0%
same,MIC50,[31],512 µg/mL
same,MIC90,[31],> 512 µg/mL
same,MIC,[32],0.25 µg/mL
same,MIC50,[32],inactive
same,MIC90,[32],inactive
same,MIC50,[33],2 µg/mL
same,MIC90,[33],2 µg/mL
same,Activity,[34],100%
same,Activity,[35],100%
same,MIC50,[36],2 µg/mL
same,MIC90,[36],2 µg/mL
same,MIC50,[37],0.25 µg/mL
same,MIC90,[37],0.25 µg/mL
same,Activity,[38],100%
same,Activity,[39],100%
same,Activity,[40],0%
same,MIC,[41],0.25 µg/mL
same,MIC50,[41],inactive
same,MIC90,[41],inactive
same,Activity,[42],98%
same,MIC,[43],0.25 µg/mL
same,MIC50,[44],2 µg/mL
same,MIC90,[44],2 µg/mL
same,Activity,[45],100%
same,MIC50,[46],512 µg/mL
same,MIC90,[46],> 512 µg/mL
GENTAMICIN,Activity,[1],29%
same,MIC50,[47],16 µg/mL
same,MIC90,[47],> 16 µg/mL
same,Activity,[12],29%
same,Activity,[19],97%
same,Activity,[21],29%
same,Activity,[23],97%
same,MIC50,[23],0.5 µg/mL
same,MIC90,[23],2 µg/mL
same,MIC50,[25],16 µg/mL
same,MIC90,[25],> 16 µg/mL
same,MIC50,[27],16 µg/mL
same,MIC90,[27],> 16 µg/mL
same,Activity,[29],29%
same,MIC50,[33],16 µg/mL
same,MIC90,[33],> 16 µg/mL
same,MIC50,[36],16 µg/mL
same,MIC90,[36],> 16 µg/mL
same,Activity,[39],35%
same,MIC50,[44],16 µg/mL
same,MIC90,[44],> 16 µg/mL
same,Activity,[48],29%
